Values of other authors as cited in patent publication US20230000960A1, “NEOANTIGEN COMPOSITIONS AND USES THEREOF” (BIONTECH US INC., priority 2019, published 2023).

Tested on: ovarian carcinoma patients
Details: poly-ICLC in combination with a NYESO-1 peptide vaccine (in addition to Montanide); phase 1 study

## poly-ICLC
  patients showing induction of CD4+ and CD8+ T cell, as well as antibody responses to the peptide: > 90%
